Measurements: patent US9493438B2, “4,4-difluoro-piperidine-compounds” (ROTTAPHARM BIOTECH S.R.L., priority 2012, dated 2016)

Assays:
human OX2 receptors = biological target: T1, human OX2 receptors (Homo sapiens, UniProt O43614); experiment: antagonistic activity against human OX2 receptor, [Ca2+]i fluorimetry in transfected HEK-293 cells; format: cell-based; conditions: read-out: PKb OX2 (converted)
T1 construct: expressed in transfected cells; host or cells: HEK-293 cells
T1 sequence (O43614 1-444): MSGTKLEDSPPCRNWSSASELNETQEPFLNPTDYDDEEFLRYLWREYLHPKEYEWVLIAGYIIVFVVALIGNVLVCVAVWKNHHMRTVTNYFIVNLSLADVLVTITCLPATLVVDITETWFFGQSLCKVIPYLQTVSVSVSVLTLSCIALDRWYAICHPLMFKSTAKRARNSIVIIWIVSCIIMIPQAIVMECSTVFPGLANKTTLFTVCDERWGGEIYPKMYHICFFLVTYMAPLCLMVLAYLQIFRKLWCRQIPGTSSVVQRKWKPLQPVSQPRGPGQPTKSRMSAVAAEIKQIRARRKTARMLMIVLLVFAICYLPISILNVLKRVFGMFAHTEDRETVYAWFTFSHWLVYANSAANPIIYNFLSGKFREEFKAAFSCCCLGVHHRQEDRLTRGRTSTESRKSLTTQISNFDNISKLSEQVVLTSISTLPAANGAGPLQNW
Experimental: Thus the plate was loaded with the calcium dye (Fluo-4NW/probenecid in HBSS, Hepes 20 mM, pH 7.4; Invitrogen) at 37° C. for 60 min. Afterward the temperature was equilibrated at 22° C. for 15 min and the [Ca2+]i measured directly on the plate by using a fluorescent plate reader (CeliLux Perkin Elmer).
Invention compounds were dissolved in DMSO, diluted in HBSS (DMSO, 0.3% final) and added to the wells. After 5 min CHO cells were activated with orexin-A, 3 nM while HEK-293 cells were activated with orexin-B, 10 nM. […] The antagonistic activity has been expressed as pKb (co-logarithm of the apparent dissociation constant calculated by using the modified Cheng Prusoff equation). The results are expressed as percent of control specific […] response ((measured specific response/control specific agonist response)×100) obtained in the presence of the test compounds.
The IC50 values (concentration causing a half-maximal inhibition of the control specific agonist response) were determinated by non-linear regression analysis of the concentration curves generated with mean replicate values using hill equation curve fitting. The IC50 values are obtained by the arithmetical mean of at least two experiments.

human OX1 receptors = biological target: T2, human OX1 receptors (Homo sapiens, UniProt O43613); experiment: antagonistic activity against human OX1 receptor, [Ca2+]i fluorimetry in transfected CHO cells; format: cell-based; conditions: CHO cells transfected with human recombinant OX1; activated with orexin-A 3 nM; pKb = co-logarithm of apparent dissociation constant (modified Cheng Prusoff)
T2 construct: expressed in transfected cells; host or cells: CHO cells
T2 sequence (O43613 1-425): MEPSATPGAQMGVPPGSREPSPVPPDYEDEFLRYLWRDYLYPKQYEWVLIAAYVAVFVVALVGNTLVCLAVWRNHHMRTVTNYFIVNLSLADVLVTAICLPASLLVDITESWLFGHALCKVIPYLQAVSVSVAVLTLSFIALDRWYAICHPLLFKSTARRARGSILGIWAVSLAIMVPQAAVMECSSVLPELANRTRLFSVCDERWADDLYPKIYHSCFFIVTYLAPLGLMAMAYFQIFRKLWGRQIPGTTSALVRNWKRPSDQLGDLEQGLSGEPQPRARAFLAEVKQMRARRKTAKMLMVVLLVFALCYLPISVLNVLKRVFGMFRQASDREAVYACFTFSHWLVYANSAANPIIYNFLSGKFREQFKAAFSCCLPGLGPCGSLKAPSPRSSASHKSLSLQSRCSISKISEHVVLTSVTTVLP

Kb (human OX2 receptors) [nM] | Kb (human OX1 receptors) [nM] | Compound
10000 | 12.6 | Cc1ccc(OCc2ccccc2)c(C(=O)N2CCC(F)(F)CC2CNc2ccc(C(F)(F)F)cn2)n1 (racemic) [Compound 47, (RS)(3-(benzyloxy)-6-methylpyridin-2-yl)(4,4-difluoro-2-(((5-(trifluoromethyl)pyridin-2-yl)amino)methyl)piperidin-1-yl)methanone]
10000 | 6.31 | O=C(c1ncccc1-c1ccccc1)N1CCC(F)(F)CC1CNc1ccc(C(F)(F)F)cn1 (racemic) [Compound 51, (RS)(4,4-difluoro-2-((5-(trifluoromethylpyridin-2-yl)amino)methyl)piperidin-1-yl)(3-phenylpyridin-2-yl)methanone]
200 | 3.98 | Cc1ccc(-c2ccccc2)c(C(=O)N2CCC(F)(F)CC2CNc2ncc(C(F)(F)F)cc2F)n1 (racemic) [Compound 44, (RS)(4,4-difluoro-2-(((3-fluoro-5-(trifluoromethyl)pyridin-2-yl)amino)methyl)piperidin-1-yl)(6-methyl-3-phenylpyridin-2-yl)methanone]

The remaining lines, values behind:

Compound | Kb (human OX2 receptors) [nM] | Kb (human OX1 receptors) [nM]
Cc1ccc(-c2ccccc2)c(C(=O)N2CCC(F)(F)CC2CNc2ccc(C(F)(F)F)cn2)n1 (racemic) [Compound 36, (RS)(4,4-difluoro-2-(((5-(trifluoromethyl)pyridin-2-yl)amino)methyl)piperidin-1-yl)(6-methyl-3-phenylpyridin-2-yl)methanone] | 10000 | 3.16
O=C(c1cccc2cccnc12)N1CCC(F)(F)CC1CNc1ccc(Cl)cn1 (single isomer, unassigned; isomer a) [Compound 26, (2-(((5-chloropyridin-2-yl)amino)methyl)-4,4-difluoropiperidin-1-yl)(quinolin-8-yl)methanone (isomer A)] | 10000 | 1.58
